Reference: patent US20230219986A1, “NOVEL AMINOPYRIMIDINE EGFR INHIBITOR” (QILU PHARMACEUTICAL CO., LTD., priority 2020, published 2023)

Legend:
wild-type EGFR = biological target: T1, wild-type EGFR (Homo sapiens, UniProt P00533); assay: Enzymology experiment in vitro (HTRF/FRET kinase activity), wild-type EGFR; type: biochemical; conditions: HTRF KinEASE-TK, read-out: EGFR (WT) IC50
T1 construct: purchased Signalchem
Outline: (§1)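 HTRF KinEASE-TK format: EGFR enzyme preincubated with compound 10 min at room temperature, then peptide substrate plus ATP added for 40 min. Detection with EDTA, XL665-streptavidin and Eu³⁺-labeled antibody for 1 h.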

[1] = biological target: T2, L858R/T790M/C797S triple mutant EGFR (Homo sapiens, UniProt P00533, C797S/L858R/T790M); assay: Enzymology experiment in vitro (HTRF/FRET kinase activity), L858R/T790M/C797S triple mutant EGFR; type: biochemical; conditions: HTRF KinEASE-TK, read-out: EGFR (L858R/T790M/C797S) IC50
T2 construct: purchased Signalchem
Outline: as §1

[2] = system: EGFR wild-type cell line A431; assay: Cell proliferation inhibition experiment (CellTiter-Glo), A431; type: cell-based; conditions: Homo sapiens, A-431, 72 h, A431 cells, Cell Titer-Glo, read-out: A431 EGFR WT IC50
Outline: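 A431 cells, 800 per well, were cultured 24 h and then exposed to serially diluted compound (0.1% DMSO final) for 72 h at 37° C., 5% CO2.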

[3] = biological target: Ba/F3 De119/T790M/C797S EGFR triple mutant cell line (Homo sapiens, UniProt P00533, T790M/C797S, cells depend on it, form not given); assay: Cell proliferation inhibition experiment (CellTiter-Glo), Ba/F3 De119/T790M/C797S; type: cell-based; conditions: Ba/F3 Del19/T790M/C797S EGFR triple mutant cells, 72 hours, Cell Titer-Glo; read-out: Ba/F3 (Del19/T790M/C797S) IC50
[4] = biological target: Ba/F3 L858R/T790M/C797S EGFR triple mutant cell line (Homo sapiens, UniProt P00533, T790M/C797S/L858R, cells depend on it); assay: Cell proliferation inhibition experiment (CellTiter-Glo), Ba/F3 L858R/T790M/C797S; type: cell-based; conditions: 72 hours, Cell Titer-Glo, read-out: Ba/F3 (L858R/T790M/C797S) IC50
Ba/F3 L858R/T790M/C797S EGFR triple mutant cell line, sequence (P00533 whole entry T790M/C797S/L858R): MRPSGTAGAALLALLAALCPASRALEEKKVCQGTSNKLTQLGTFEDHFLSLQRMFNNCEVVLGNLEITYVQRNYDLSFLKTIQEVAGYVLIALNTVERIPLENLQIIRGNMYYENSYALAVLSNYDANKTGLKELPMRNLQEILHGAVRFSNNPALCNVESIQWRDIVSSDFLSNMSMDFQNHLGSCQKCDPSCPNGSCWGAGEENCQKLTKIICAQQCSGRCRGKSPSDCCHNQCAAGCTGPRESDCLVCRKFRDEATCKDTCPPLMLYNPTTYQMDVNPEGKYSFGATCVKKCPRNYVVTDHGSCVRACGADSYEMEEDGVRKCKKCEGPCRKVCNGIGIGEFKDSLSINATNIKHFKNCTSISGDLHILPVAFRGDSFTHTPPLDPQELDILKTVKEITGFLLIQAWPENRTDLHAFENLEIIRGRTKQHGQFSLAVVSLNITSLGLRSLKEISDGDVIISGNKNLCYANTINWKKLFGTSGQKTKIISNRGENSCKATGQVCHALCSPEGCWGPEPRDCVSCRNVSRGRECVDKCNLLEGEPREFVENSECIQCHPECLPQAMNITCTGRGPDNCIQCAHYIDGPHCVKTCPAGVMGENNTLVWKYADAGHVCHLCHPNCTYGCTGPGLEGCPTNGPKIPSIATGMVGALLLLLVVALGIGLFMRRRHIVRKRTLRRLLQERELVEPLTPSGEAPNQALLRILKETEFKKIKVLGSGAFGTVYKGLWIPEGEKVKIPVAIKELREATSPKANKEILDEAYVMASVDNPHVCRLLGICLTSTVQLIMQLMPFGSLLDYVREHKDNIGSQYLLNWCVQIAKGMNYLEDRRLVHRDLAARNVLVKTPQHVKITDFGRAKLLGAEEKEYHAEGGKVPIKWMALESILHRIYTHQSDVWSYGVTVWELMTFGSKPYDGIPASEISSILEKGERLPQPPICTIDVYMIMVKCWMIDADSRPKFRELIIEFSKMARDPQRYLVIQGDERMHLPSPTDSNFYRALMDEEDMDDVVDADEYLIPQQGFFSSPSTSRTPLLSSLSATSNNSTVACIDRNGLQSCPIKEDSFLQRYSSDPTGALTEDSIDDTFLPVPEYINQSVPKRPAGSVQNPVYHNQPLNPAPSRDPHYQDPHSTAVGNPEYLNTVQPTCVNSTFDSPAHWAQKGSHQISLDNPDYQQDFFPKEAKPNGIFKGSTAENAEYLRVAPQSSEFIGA

Ba/F3 De119/T790M/C797S EGFR triple mutant cell line, sequence (P00533 with tags, fused parts or gaps DEL746-750/T790M/C797S, form open): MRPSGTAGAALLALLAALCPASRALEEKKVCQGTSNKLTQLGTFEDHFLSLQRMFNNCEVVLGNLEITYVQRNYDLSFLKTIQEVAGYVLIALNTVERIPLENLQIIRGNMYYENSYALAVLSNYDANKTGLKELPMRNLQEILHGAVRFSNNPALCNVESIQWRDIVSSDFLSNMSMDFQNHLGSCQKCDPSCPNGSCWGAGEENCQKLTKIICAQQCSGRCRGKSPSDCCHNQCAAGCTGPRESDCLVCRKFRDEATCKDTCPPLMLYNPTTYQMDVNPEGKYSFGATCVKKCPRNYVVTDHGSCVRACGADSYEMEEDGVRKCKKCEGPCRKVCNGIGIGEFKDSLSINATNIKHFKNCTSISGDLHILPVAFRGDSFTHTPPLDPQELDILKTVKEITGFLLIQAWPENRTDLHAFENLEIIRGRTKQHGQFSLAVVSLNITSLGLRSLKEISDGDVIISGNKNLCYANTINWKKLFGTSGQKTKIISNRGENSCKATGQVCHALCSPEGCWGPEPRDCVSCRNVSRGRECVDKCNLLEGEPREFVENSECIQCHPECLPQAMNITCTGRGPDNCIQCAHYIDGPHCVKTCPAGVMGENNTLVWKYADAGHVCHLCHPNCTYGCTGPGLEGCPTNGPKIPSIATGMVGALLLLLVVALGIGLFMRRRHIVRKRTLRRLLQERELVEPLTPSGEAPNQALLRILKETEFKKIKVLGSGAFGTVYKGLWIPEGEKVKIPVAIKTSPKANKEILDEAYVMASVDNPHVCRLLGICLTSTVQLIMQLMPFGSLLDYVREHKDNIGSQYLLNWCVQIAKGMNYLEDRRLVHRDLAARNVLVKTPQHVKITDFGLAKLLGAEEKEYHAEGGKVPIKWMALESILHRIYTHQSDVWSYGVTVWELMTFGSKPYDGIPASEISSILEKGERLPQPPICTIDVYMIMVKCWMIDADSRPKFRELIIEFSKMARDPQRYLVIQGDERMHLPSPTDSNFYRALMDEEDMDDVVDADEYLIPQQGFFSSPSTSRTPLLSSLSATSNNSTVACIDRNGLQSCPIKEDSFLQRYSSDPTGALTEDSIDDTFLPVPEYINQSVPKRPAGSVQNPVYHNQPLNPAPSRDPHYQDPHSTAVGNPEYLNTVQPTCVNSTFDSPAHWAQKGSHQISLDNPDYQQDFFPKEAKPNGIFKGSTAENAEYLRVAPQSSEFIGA
T1 sequence (P00533 25-1210): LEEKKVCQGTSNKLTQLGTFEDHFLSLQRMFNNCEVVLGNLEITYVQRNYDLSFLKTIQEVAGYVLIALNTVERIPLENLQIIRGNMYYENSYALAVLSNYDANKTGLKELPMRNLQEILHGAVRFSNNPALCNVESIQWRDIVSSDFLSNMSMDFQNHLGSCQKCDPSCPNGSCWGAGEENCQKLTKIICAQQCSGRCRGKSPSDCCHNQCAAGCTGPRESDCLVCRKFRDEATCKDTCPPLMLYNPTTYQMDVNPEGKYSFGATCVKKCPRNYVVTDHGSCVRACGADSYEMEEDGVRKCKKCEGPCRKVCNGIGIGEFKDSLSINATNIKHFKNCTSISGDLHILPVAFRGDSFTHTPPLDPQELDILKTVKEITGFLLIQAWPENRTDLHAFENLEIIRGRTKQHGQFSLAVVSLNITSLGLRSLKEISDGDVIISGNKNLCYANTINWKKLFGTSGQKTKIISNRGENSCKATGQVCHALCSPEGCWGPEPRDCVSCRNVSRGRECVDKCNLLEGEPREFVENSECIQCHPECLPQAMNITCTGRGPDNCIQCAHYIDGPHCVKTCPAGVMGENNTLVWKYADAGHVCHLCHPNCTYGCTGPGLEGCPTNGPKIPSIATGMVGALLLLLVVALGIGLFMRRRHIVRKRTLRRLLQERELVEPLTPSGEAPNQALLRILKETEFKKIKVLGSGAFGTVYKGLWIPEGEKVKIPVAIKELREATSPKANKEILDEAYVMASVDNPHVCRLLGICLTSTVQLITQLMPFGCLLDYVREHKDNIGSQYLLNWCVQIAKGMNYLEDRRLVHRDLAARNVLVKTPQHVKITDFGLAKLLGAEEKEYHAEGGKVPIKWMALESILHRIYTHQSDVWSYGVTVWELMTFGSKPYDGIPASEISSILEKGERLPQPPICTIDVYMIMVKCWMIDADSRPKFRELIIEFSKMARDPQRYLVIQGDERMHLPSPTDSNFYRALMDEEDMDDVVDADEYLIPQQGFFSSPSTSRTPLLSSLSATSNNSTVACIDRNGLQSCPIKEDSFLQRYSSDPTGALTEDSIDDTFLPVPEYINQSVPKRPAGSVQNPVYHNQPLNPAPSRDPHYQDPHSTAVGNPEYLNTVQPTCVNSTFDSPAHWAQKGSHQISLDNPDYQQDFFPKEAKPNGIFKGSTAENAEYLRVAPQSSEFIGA
T2 sequence (P00533 25-1210 T790M/C797S/L858R): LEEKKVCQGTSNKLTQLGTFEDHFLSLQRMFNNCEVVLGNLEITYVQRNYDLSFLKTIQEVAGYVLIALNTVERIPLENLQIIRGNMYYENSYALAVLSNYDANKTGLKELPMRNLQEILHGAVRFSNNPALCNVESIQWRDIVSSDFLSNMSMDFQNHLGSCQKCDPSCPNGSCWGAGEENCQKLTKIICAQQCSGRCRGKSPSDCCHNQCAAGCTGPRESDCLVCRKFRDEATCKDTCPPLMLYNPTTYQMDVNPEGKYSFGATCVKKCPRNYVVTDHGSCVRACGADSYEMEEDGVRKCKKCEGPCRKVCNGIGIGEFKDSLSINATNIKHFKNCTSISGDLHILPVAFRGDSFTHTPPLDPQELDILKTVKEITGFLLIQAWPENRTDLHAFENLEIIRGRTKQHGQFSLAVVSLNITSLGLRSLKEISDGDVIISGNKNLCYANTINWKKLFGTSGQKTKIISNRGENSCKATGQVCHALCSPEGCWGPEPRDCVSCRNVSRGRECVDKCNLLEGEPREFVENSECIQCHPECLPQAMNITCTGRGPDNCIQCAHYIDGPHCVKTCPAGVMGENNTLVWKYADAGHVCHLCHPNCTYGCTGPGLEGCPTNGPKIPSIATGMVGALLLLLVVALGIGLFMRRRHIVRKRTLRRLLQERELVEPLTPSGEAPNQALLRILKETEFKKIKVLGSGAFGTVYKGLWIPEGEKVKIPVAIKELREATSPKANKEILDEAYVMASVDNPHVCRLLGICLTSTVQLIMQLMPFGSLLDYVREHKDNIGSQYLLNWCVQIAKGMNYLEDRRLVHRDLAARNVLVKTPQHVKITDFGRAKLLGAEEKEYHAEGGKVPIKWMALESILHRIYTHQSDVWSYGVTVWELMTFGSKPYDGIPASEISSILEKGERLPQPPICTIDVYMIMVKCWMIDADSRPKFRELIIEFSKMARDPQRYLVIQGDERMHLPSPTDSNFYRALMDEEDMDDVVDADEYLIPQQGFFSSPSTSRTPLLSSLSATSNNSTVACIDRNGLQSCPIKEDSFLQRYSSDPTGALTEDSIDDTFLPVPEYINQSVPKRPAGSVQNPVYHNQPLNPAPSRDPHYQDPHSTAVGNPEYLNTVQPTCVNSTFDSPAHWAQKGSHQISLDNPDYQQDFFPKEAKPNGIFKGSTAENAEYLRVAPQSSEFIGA

SMILES	IC50 (wild-type EGFR)	IC50 [1]	IC50 [2]	GI50 [3]	GI50 [4]
COc1cc(N2CCC3(CCN(CC(F)F)CC3)CC2)c(-c2cnn(C)c2)cc1Nc1ncc(Br)c(Nc2ccc3nccnc3c2P(C)(C)=O)n1 [compound 149]	78.5 nM	3.36 nM	376 nM	1.62 nM	3.21 nM
COc1cc(N2CCC(OC(C)C)CC2)c(-c2cnn(C)c2)cc1Nc1ncc(Br)c(Nc2ccc3nccnc3c2P(C)(C)=O)n1 [compound 151]	38.2 nM	2.2 nM	318 nM	1.84 nM	7.47 nM
COC[C@H]1CN(c2cc(OC)c(Nc3ncc(Br)c(Nc4ccc5nccnc5c4P(C)(C)=O)n3)cc2-c2cnn(C)c2)CCO1 [compound 152]	4.24 nM	0.35 nM	133 nM	1.06 nM	4.59 nM
COc1cc(NC(C)C(F)(F)F)c(-c2cnn(C)c2)cc1Nc1ncc(Br)c(Nc2ccc3nccnc3c2P(C)(C)=O)n1 (centres unmarked) [compound 154]	36.9 nM	0.86 nM	469 nM	5.26 nM	15.4 nM
COc1cc(N2CCC(OCC3CC3)CC2)c(-c2cnn(C)c2)cc1Nc1ncc(Br)c(Nc2ccc3nccnc3c2P(C)(C)=O)n1 [compound 156]	33.5 nM	3.81 nM	372 nM	1.05 nM	7.29 nM
COc1cc(N2CCN(CC3CC3)CC2)c(-c2cnn(C)c2)cc1Nc1ncc(Br)c(Nc2ccc3nccnc3c2P(C)(C)=O)n1 [compound 157]	3.6 nM	0.33 nM	49.4 nM	1.28 nM	7.05 nM
COCC1CCCN(c2cc(OC)c(Nc3ncc(Br)c(Nc4ccc5nccnc5c4P(C)(C)=O)n3)cc2-c2cnn(C)c2)C1 (centres unmarked) [compound 162]	20.6 nM	2.28 nM	518 nM	6.2 nM	18 nM
COc1cc(N2CCN(C(C)C)C(CF)C2)c(-c2cnn(C)c2)cc1Nc1ncc(Br)c(Nc2ccc3nccnc3c2P(C)(C)=O)n1 (centres unmarked) [compound 164]	5.3 nM	0.73 nM	195 nM	3.22 nM	8.26 nM
COc1cc(N2CCN3CCCC[C@H]3C2)c(-c2cnn(C)c2)cc1Nc1ncc(Br)c(Nc2ccc3nccnc3c2P(C)(C)=O)n1 [compound 166]	3.81 nM	0.48 nM	92.1 nM	1.58 nM	5.05 nM
COc1cc(N2CCO[C@H](C)C2)c(-c2cnn(C)c2)cc1Nc1ncc(Br)c(Nc2ccc3nccnc3c2P(C)(C)=O)n1 [compound 169]	4.39 nM	0.73 nM	175 nM	2.36 nM	4.24 nM
COc1cc(N2CCO[C@@H](C)C2)c(-c2cnn(C)c2)cc1Nc1ncc(Br)c(Nc2ccc3nccnc3c2P(C)(C)=O)n1 [compound 170]	4.94 nM	0.45 nM	280 nM	1.8 nM	8.14 nM
COc1cc(N2CCOCC2)c(-c2cnn(C)c2)cc1Nc1ncc(Br)c(Nc2ccc3nccnc3c2N(C)S(C)(=O)=O)n1 [compound 171, N-(6-((5-bromo-2-((2-methoxy-5-(1-methyl-1H-pyrazol-4-yl)-4-morpholinophenyl)amino)pyrimidin-4-yl)amino)quinoxalin-5-yl)-N-methylmethanesulfonamide]	4.59 nM	0.29 nM	623 nM	2.13 nM	7.23 nM
COc1cc(N2CCC(N(C)C(C)C(F)(F)F)CC2)c(-c2cnn(C)c2)cc1Nc1ncc(Br)c(Nc2ccc3nccnc3c2P(C)(C)=O)n1 (centres unmarked) [compound 173]	50.7 nM	6 nM	738 nM	11.2 nM	24.5 nM
COc1cc(N2CCN3CCCC[C@@H]3C2)c(-c2cnn(C)c2)cc1Nc1ncc(Br)c(Nc2ccc3nccnc3c2P(C)(C)=O)n1 [compound 175]	3.1 nM	0.33 nM	41.3 nM	1.7 nM	5.38 nM

Continued by falling IC50 (wild-type EGFR), values first:

IC50 (wild-type EGFR)	IC50 [1]	IC50 [2]	GI50 [3]	GI50 [4]	SMILES
3.02 nM	0.22 nM	61.9 nM	1.03 nM	2.89 nM	COc1cc(N2CCN(C)C(CF)C2)c(-c2cnn(C)c2)cc1Nc1ncc(Br)c(Nc2ccc3nccnc3c2P(C)(C)=O)n1 (centres unmarked) [compound 153]
2.71 nM	0.39 nM	154 nM	2.36 nM	6.39 nM	COc1cc(N2CCN3CCOCC3C2)c(-c2cnn(C)c2)cc1Nc1ncc(Br)c(Nc2ccc3nccnc3c2P(C)(C)=O)n1 (centres unmarked) [compound 161]
2.57 nM	0.35 nM	67.4 nM	0.71 nM	4.2 nM	COc1cc(N2CCC3CCN(C)C3C2)c(-c2cnn(C)c2)cc1Nc1ncc(Br)c(Nc2ccc3nccnc3c2P(C)(C)=O)n1 (centres unmarked) [compound 168]
2.48 nM	0.81 nM	166 nM	3.28 nM	6.76 nM	COc1cc(N2CCC(N3CCN(C)CC3)CC2)c(-c2cnn(C)c2)cc1Nc1ncc(Br)c(Nc2cc3c(cc2N(C)S(C)(=O)=O)CC3)n1 [compound 158]
2.45 nM	0.29 nM	139 nM	1.57 nM	3.34 nM	COc1cc(N2CCN(C3COC3)CC2)c(-c2cnn(C)c2)cc1Nc1ncc(Br)c(Nc2ccc3nccnc3c2P(C)(C)=O)n1 [compound 150, (6-((5-bromo-2-((2-methoxy-5-(1-methyl-1H-pyrazol-4-yl)-4-(4-(oxetan-3-yl)piperazin-1-yl)phenyl)amino)pyrimidin-4-yl)amino)quinoxalin-5-yl)dimethylphosphine oxide]
2.32 nM	0.26 nM	208 nM	1.56 nM	9.04 nM	COc1cc(N2CCOCC2)c(-c2cnn(C)c2)cc1Nc1ncc(Br)c(Nc2ccc3ncccc3c2P(C)(C)=O)n1 [compound 160]
1.95 nM	0.79 nM	47.4 nM	2.97 nM	4.34 nM	COc1cc(N2CCC3(CCN(CC4CC4)CC3)CC2)c(-c2cnn(C)c2)cc1Nc1ncc(Br)c(Nc2ccc3nccnc3c2P(C)(C)=O)n1 [compound 167]
1.89 nM	0.28 nM	71.8 nM	0.62 nM	1.97 nM	COc1cc(N2CCC(N3CCO[C@H](C)C3)CC2)c(-c2cnn(C)c2)cc1Nc1ncc(Br)c(Nc2ccc3nccnc3c2P(C)(C)=O)n1 [compound 163]
1.54 nM	0.7 nM	114 nM	0.93 nM	4.11 nM	COc1cc(N2CCC(N3CC(F)C3)CC2)c(-c2cnn(C)c2)cc1Nc1ncc(Br)c(Nc2ccc3nccnc3c2P(C)(C)=O)n1 [compound 159]
1.36 nM	0.69 nM	70.2 nM	0.8 nM	2.62 nM	COc1cc(N2CCC(N3CCO[C@@H](C)C3)CC2)c(-c2cnn(C)c2)cc1Nc1ncc(Br)c(Nc2ccc3nccnc3c2P(C)(C)=O)n1 [compound 165]
0.69 nM	0.14 nM	329 nM	102 nM	328 nM	COc1cc(N2CCC(N3CC4(CN(C)C4)C3)CC2)c(-c2cnn(C)c2)cc1Nc1ncc(Br)c(Nc2ccc3nccnc3c2P(C)(C)=O)n1 [compound 172]
